The values below come from patent US20110002989A1, “METHODS, DOSAGE FORMS AND KITS FOR ADMINISTERING ZIPRASIDONE WITHOUT FOOD” (Pfizer Inc., priority 2008, published 2011).

For data set [1] the following is noted: depending on the dose, healthy volunteers; cited from earlier work.
Data set [2] in a line: In vitro dissolution test in 0.01 N HCl simulated gastric buffer pH 2.0 (MDC and AUC90). Type of data set: physicochemical. The following applies: for AUC90 / MDC: 200 μgA/mL if all dissolved, pH 2.0, 37° C., 100 rpm; for AUC Enhancement Relative to Control 1: AUC90, pH 2.0 simulated gastric buffer; for AUC Enhancement Relative to Control 1 / MDC Enhancement Relative to Control 1: 37° C.; for MDC Enhancement Relative to Control 1: pH 2.0 simulated gastric buffer. As to the method:
An in vitro dissolution test may be performed by adding the test form of ziprasidone to a dissolution test media consisting of a simulated gastric buffer (GB) solution of 0.01 N HCl at pH 2.0.
In such a test, two end-points are assessed: 1) the maximum dissolved drug concentration (MDC) of ziprasidone in the test media, and 2) the area under the concentration versus time curve of dissolved ziprasidone in the in vitro dissolution test. More specifically, in the in vitro use environment, the concentration of dissolved ziprasidone over any 90-minute period from about 0 to about 270 minutes following introduction to the use environment is measured.
An in vitro test to evaluate enhanced ziprasidone dissolution rate in aqueous solution can be conducted by adding with agitation a sufficient quantity of test ziprasidone form to the test medium, such that if all the ziprasidone dissolved, the theoretical concentration of ziprasidone would exceed the equilibrium concentration provided by the control ziprasidone form by a factor of at least 2, and preferably by a factor of at least 10. Performing the test at this concentration will ensure that the MDC of ziprasidone can be determined.
Then, the concentration of dissolved ziprasidone is measured as a function of time by sampling the test medium and plotting ziprasidone concentration in the test medium versus time so that the dissolution rate can be ascertained. The MDC is taken to be the maximum value of dissolved ziprasidone measured over the duration of the test.
During such a test, the concentration of “dissolved drug” should be measured using standard analytical techniques, including high-performance liquid chromatography (HPLC), ultraviolet (UV) absorption, or other standard methods known in the art. When using solution techniques, such as HPLC, the test solution should be either filtered or centrifuged, to avoid large drug particulates that would give an erroneous determination.
“Dissolved drug” is typically taken as that material that either passes a 0.45 μm syringe filter or, alternatively, the material that remains in the supernatant following centrifugation. Filtration can be conducted using a 13 mm, 0.45 μm polyvinylidine difluoride syringe filter sold by Scientific Resources under the trademark TITAN®. Centrifugation is typically carried out in a polypropylene microcentrifuge tube by centrifuging at 13,000 G for 60 seconds. Other similar filtration or centrifugation methods can be employed and useful results obtained. For example, using other types of microfilters may yield values somewhat higher or lower (±10-40%) than that obtained with the filter specified above but will still allow identification of preferred dissolution rate-improved forms.
A specific example of a dissolution test for ascertaining solubility and dissolution rate of a test ziprasidone form is as follows: First, a sufficient amount of the test form is placed into a dissolution flask such that the concentration of ziprasidone would have been 200 μgA/mL if all the ziprasidone dissolved. A simulated GB solution at pH 2.0 is then added and the mixture stirred at a stirred speed of 100 rpm. The test is performed at 37° C. Using UV probes, the concentration of dissolved ziprasidone is then measured over time for at least 90 minutes. The formulation is considered to be a solubility-improved form or dissolution rate-improved form of ziprasidone if it provides at least one of (1) a MDC that is greater than that of the control, (2) an AUC90 that is greater than that of the control, or (3) both (1) and (2). The control formulation, as discussed above, is crystalline ziprasidone HCl monohydrate as is used in the GEODON/ZELDOX™ commercial capsules.
The following test was used to evaluate various ziprasidone formulations. […]

Counter-ions that a name gives are not always drawn.

Turning to `O=C1Cc2cc(CCN3CCN(c4nsc5ccccc45)CC3)c(Cl)cc2N1` [Ziprasidone, 5-[2-[4-(1,2-benzisothiazol-3-yl)-1-piperazinyl]ethyl]-6-chloro-1,3-dihydro-2H-indol-2-one], in data set [1], the “enhanced absorption when given with food” value is “approximately 100%”.

In the case of ziprasidone tosylate [Example 8], in data set [2], the AUC90 was 3.8 mg·min/mL, the MDC was 54 μgA/mL, the “AUC Enhancement Relative to Control 1” value is recorded as 2.3 fold and the “MDC Enhancement Relative to Control 1” value was 2.1 fold.

In data set [2] (hydrochloride monohydrate), `O=C1Cc2cc(CCN3CCN(c4nsc5ccccc45)CC3)c(Cl)cc2N1` [Control 1, ziprasidone hydrochloride monohydrate, reference compound] displayed an AUC90 of 1.6 mg·min/mL and an MDC of 25 μgA/mL.

As for ziprasidone citrate [Example 11], in data set [2], the AUC90 is 2.4 mg·min/mL, the MDC is 33 μgA/mL, the “AUC Enhancement Relative to Control 1” value was 1.5 fold and the “MDC Enhancement Relative to Control 1” value is 1.3 fold.

Regarding `O=C1Cc2cc(CCN3CCN(c4nsc5ccccc45)CC3)c(Cl)cc2N1` [Example 7, ziprasidone free base], in data set [2], the AUC90 was 7.0 mg·min/mL, the MDC is given as 85 μgA/mL, the “AUC Enhancement Relative to Control 1” value is 4.3 fold and the “MDC Enhancement Relative to Control 1” value is listed as 3.3 fold.

Regarding `O=C1Cc2cc(CCN3CCN(c4nsc5ccccc45)CC3)c(Cl)cc2N1` [Example 6, ziprasidone mesylate], in data set [2], the AUC90 is 9.0 mg·min/mL, the MDC is 140 μgA/mL, the “AUC Enhancement Relative to Control 1” value is reported as 5.5 fold and the “MDC Enhancement Relative to Control 1” value is on record as 5.5 fold.

ziprasidone succinate [Example 12]: in data set [2], the AUC90 is 4.9 mg·min/mL, the MDC is 59 μgA/mL, the “AUC Enhancement Relative to Control 1” value is 3.0 fold and the “MDC Enhancement Relative to Control 1” value is 2.3 fold.

As to `NC(CC(=O)O)C(=O)O.O=C1Cc2cc(CCN3CCN(c4nsc5ccccc45)CC3)c(Cl)cc2N1` [Example 10, ziprasidone aspartate], in data set [2], the AUC90 is 6.1 mg·min/mL, the MDC was 76 μgA/mL, the “AUC Enhancement Relative to Control 1” value is given as 3.7 fold and the “MDC Enhancement Relative to Control 1” value is recorded as 3.0 fold.

For the molecule ziprasidone tartrate [Example 9], in data set [2], the AUC90 was 6.1 mg·min/mL, the MDC was 91 μgA/mL, the “AUC Enhancement Relative to Control 1” value is reported as 3.7 fold and the “MDC Enhancement Relative to Control 1” value was 3.6 fold.
